From patent US20260184704A1, “NLRP3 INFLAMMASOME INHIBITORS AND USES THEREOF” (Insilico Medicine IP Limited, priority 2023, published 2026)

Experiments:
[1] = tested on: THP-1 cells, IL-1β release; test: IL-1β Release THP-1 Assay (Example B-3); format: cell-based; conditions: Homo sapiens; PMA-differentiated THP-1 cells, LPS then Nigericin, IL-1β by Elisa; read-out: Potency, THP-1 IL-1β, IC50 (nM), Example B-3
Procedure: Example B-3: IL-1β Release THP-1 Assay
THP-1 cells Culture RPMI1640 medium, 10% FBS, 1% PS, 55 uM β-Mer at 37° C. & 5% CO2 incubator.
IL-1β Release Detection • 1) Seed THP-1 in complete RPMI 1640 medium containing PMA into 96 well plate coated with poly-L-lysin incubate for 24 hours. • 2) Remove medium, wash the differentiated THP-1 cells with PBS, add FBS free RPMI 1640 medium. • 3) Add LPS and incubate for 3 hours at 37° C. & 5% CO2 incubator. • 4) Add compounds and incubate for 30 minutes at 37° C. & 5% CO2 incubator. • 5) Add Nigericin and incubate for 1 hour at 37° C. & 5% CO2 incubator. • 6) Collect supernatant to test IL-1β by Elisa.
• a) Assay robustness check with DMSO and Low control data:
[formula] • X: cpd concentration • Y: change % • Top and Bottom: Plateaus in same units as Y • logIC50: same log units as X • HillSlope: Slope factor or Hill slope

[2] = target: T1, hERG (Homo sapiens, UniProt Q12809); test: hERG Screening Assay Using Electrophysiological Manual Patch-Clamp (Example B-5); format: cell-based; conditions: hERG-CHO cells, whole-cell manual patch clamp, room temperature; read-out: hERG inhibition_IC50 (μM), Example B-5
T1 construct: expressed in transfected cells
T1 sequence (Q12809 whole entry): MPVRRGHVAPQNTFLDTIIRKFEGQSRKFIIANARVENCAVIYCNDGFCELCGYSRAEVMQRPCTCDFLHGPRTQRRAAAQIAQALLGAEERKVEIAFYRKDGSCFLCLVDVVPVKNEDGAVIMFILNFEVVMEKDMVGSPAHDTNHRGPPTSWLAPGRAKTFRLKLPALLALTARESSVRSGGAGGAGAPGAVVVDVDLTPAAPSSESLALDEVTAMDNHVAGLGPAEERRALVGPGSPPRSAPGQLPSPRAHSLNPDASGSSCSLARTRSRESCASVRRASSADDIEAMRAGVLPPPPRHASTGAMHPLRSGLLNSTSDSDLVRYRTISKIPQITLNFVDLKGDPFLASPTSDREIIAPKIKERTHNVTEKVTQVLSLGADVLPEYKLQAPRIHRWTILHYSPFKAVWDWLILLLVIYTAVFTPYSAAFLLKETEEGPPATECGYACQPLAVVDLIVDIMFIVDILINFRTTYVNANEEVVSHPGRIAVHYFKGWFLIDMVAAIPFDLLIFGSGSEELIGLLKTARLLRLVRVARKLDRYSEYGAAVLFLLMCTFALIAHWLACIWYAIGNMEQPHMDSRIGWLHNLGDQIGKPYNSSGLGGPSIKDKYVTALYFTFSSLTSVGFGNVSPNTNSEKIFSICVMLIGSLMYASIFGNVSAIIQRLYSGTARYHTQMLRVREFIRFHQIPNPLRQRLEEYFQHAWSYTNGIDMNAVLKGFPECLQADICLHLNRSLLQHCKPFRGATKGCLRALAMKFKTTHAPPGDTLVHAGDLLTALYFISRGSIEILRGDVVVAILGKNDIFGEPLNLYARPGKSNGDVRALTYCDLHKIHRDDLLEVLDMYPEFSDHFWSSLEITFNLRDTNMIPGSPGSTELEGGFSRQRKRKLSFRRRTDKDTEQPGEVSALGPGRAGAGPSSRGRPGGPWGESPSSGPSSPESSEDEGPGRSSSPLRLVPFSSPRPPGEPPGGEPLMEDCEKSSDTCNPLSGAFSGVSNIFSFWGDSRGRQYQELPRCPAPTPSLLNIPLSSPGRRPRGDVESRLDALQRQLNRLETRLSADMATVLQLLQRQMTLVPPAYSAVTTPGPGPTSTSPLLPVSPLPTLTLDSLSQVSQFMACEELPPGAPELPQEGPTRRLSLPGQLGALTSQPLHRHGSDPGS
Procedure: Example B-5: hERG Screening Assay Using Electrophysiological Manual Patch-Clamp
Cell lines: hERG-CHO cells
Method: CHO cells stably expressing the transcript of hERG were investigated by whole-cell manual patch clamp technique. hERG-CHO cells were cultured in 35 mm dishes to a maximum 70-80% confluence at 37° C. 5% CO2 incubator. The culture media (F12 medium (Invitrogen 11765062, ThermoFisher, USA) supplemented with 10% fetal bovine serum (Invitrogen 10099141, ThermoFisher, USA), 100 μg/mL G418 (Invitrogen 11811023, ThermoFisher, USA) and 100 μg/mL Hygromycin B (Invitrogen 10687010, ThermoFisher, USA)) was removed and the hERG-CHO cells were washed with extracellular solution (in mM): 140 NaCl, 5 KCl, 1 CaCl2), 1.25 MgCl2, 10 HEPES and 10 Glucose, pH 7.4 with NaOH. Then the cells were dissociated with 0.25% Trypsin-EDTA for 3-5 min, after that, the digestion solution was removed and the cells were resuspended in the extracellular solution with pipette by pipetting up and down several times. Resuspended cells were transferred to dishes for recording and cells were perfused with extracellular solution. Electrodes (a tip resistance of 3-5 MegOhm) were pulled from borosilicate grass pipette (Sutter instrument BF150-86-10) and filled with intracellular solution (in mM): 140 KCl, 1 MgCl2, 1 CaCl2), 10 EGTA and 10 HEPES, pH 7.2 with KOH. Data were obtained using a patch-clamp amplifier, signals were filtered at 2 kHz and sampled at frequencies of 10 kHz using pClamp 10 software. The cells were held at −100 mV and hERG potassium currents were activated by a 2 s depolarization potential of +20 mV followed by a repolarization potential of −50 mV for Is then back to the holding potential. Experiments were performed at room temperature.
Data analysis: Data were retrieved and analyzed using pClamp 10, GraphPad Prism 8 and Excel software. The peak amplitude of hERG currents were measured using clampfit and exported to Excel and GraphPad Prism 8 for subsequent analysis.
where Y is the inhibition % corresponding to X, [X] is the Log value of concentration of compound in the external solution and HillSlope is the Hill coefficient. The ratio of inhibition was calculated by using the equation: Inhibition=(1−I/Io)*100%, where Io and I are the current amplitude measured in control and in the presence of compounds, respectively. n is not less than 2 cells for each concentration.
Results: Compounds IC50 on hERG and concentration-response curves

[3] = target: T2, NLRP3 (Homo sapiens, UniProt Q96P20); test: NLRP3 Enzymatic Activity ADP-Glo Assay (Example B-4); format: biochemical; conditions: hydrolysis of ATP by NLRP3; NLRP3 15 nM, ATP 1 μM; read-out: NLRP3_ADP-Glo_IC50 (nM), Example B-4
T2 construct: purchased ICE YM2306T-H06MHS
T2 sequence (Q96P20 whole entry): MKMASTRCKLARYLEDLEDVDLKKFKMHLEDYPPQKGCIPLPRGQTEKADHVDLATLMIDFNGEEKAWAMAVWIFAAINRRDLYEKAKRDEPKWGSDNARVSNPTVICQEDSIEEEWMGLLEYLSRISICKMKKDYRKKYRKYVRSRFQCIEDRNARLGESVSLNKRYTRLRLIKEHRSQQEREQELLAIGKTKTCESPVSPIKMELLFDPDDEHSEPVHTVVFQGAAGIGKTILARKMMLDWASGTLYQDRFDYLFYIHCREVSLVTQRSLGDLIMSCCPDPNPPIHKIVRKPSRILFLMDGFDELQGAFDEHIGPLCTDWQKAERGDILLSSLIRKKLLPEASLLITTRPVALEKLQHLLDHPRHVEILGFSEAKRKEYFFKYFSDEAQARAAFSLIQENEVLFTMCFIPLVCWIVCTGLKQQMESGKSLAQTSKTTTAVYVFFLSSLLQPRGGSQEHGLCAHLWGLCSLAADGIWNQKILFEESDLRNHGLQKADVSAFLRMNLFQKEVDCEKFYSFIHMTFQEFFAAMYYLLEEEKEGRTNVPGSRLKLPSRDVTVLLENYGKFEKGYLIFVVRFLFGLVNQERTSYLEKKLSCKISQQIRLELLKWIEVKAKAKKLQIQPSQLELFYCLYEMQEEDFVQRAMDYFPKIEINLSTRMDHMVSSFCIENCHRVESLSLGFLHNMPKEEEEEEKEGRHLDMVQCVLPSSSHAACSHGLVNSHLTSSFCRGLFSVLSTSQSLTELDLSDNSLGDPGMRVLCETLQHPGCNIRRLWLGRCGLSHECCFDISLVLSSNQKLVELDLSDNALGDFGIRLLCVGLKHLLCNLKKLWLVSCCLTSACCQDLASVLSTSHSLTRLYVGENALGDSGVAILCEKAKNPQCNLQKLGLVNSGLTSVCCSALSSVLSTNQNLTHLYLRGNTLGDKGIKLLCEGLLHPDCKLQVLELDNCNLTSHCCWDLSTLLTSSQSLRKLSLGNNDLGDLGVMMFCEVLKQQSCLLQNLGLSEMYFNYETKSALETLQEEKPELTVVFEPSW
Procedure: Example B-4: NLRP3 Enzymatic Activity ADP-Glo Assay
NLRP3 activity test experiment, measuring the hydrolysis of NLRP3 on the substrate ATP using the ADP-Glo assay. First, after adding an inhibitor containing 0.5% DMSO with Echo, add 5 μL of NLRP3 (ICE, YM2306T-H06MHS) enzyme solution to each well, centrifuge at 1000 rpm for 1 min at room temperature and react for 10 min. Then add 5 μL of ATP (Promega, V915A) substrate solution to each well for 90 min at room temperature; NLRP3 and ATP were prepared in 50 mM HEPES, 10 mM MgCl2, 0.01% Brij-35, 1 mM EGTA, and 2 mM DTT buffers at final concentrations of 15 nM and 1 μM, respectively. Subsequently, 10 μL ADP-Glo reagent solution (Promega, V9102) was added into each assay well, centrifuged at 1000 rpm for 1 min, and then incubated at room temperature for 45 min. Finally, 20 μL ADP-Glo detection solution (Promega, V9102) is added to each well, centrifuged at 1000 rpm for 1 min and reacted for 45 min at room temperature. The luminescence signal values were read using a BMG instrument and the IC50 values were determined by fitting the data to an S-shaped dose-response curve using nonlinear regression.

IC50 [1]	IC50 [3]	Compound	IC50 [2]
10 to 100 nM	10 to 100 nM	Cc1cc2c(c(O)c1C1=NN=C(N[C@H]3C[C@@](C)(O)C3)SC1)CCO2 [Compound 31]	> 30 µM
< 10 nM	< 10 nM	Cc1cc2c(c(O)c1C1=NN=C(N[C@H]3C[C@@](C)(O)C3)SC1)CC2 [Compound 59]	> 30 µM
< 10 nM	10 to 100 nM	Cc1cc2c(c(O)c1C1=NN=C(N[C@@H]3CCCN(C)C3)SC1)CCO2 [Compound 28]	29.4 µM
10 to 100 nM	10 to 100 nM	Cc1cc(C(F)(F)F)cc(O)c1C1=NN=C(N[C@H]2C[C@@](C)(O)C2)SC1 [Compound 10]	> 30 µM
10 to 100 nM	10 to 100 nM	Cc1cc(C(F)(F)F)cc(O)c1C1=NN=C(N[C@@H]2C[C@@H](F)CN(C)C2)SC1 [Compound 8]	19.1 µM
10 to 100 nM	10 to 100 nM	C[C@]1(O)C[C@@H](NC2=NN=C(c3c(O)cc(C(F)(F)F)cc3Cl)CS2)C1 [Compound 45]	–
< 10 nM	10 to 100 nM	Cc1cc(Cl)cc(O)c1C1=NN=C(N[C@H]2C[C@@](C)(O)C2)CS1 [Compound 204]	–
